Source: patent US10980238B2, “Alkali metal salt for use in treatment of varroa destructor mite infestation of honey bees” (Universität Hohenheim, priority 2015, dated 2021)
Values joined by “and” are separate entries in the source; they are usually repeats but may differ in a detail not shown here. Identical values can stand only once.

Assays:
Varroa destructor [1] = assay: Experiment 9 artificial swarms: mite fall; assay type: in vivo; conditions: 25 mM or 50 mM
Protocol: Six artificial swarms were fed with sucrose/LiCl after a starving phase of several hours. LiCl was dissolved in sucrose at final concentrations of 25 mM and 50 mM. Each artificial swarm received 500 ml of the sucrose/LiCl mixture in a feeding balloon. The total volume of sucrose/LiCl solution was consumed by the bees. Mite fall was monitored for 7 days. Afterwards, bees were treated with Perizin® to assess the number of remaining mites.

Varroa destructor [2] = assay: Experiment 2 cage test (50 bees, 20 mites): dead mites; assay type: in vivo; conditions: 25 mM in 70% sucrose
Protocol: (§6) The next set of experiments was carried out in plastic container with 50 bees and 20 mites each. Bees were fed the same amount of unspecific dsRNA that has been used in previous assays in 70% sucrose solution, LiCl at a concentration of 25 mM in 70%, sucrose solution, and 70% sucrose solution only.

Varroa destructor [3] = assay: Experiment 7 mini-hives (2000 to 3000 bees), semi-field conditions; assay type: in vivo; conditions: remaining mites killed with Perizin and counted
Protocol: In order to investigate if the miticidal effect of LiCl can also be detected under semi-field conditions, so-called “mini-hives” consisting of 2000 to 3000 bees each were treated with LiCl.
LiCl was dissolved in 70% sucrose to final concentrations of 2 mM, 10 mM and 25 mM. Each concentration was replicated 6 times and fed to the bees for 23 days. Dead mites were documented daily. After 23 days of LiCl treatment, remaining mites were killed with Perizin® (commercial product containing the active ingredient coumaphos) and counted (see Table 4 “Remaining mites”).

honey bee larvae = assay: Experiment 8 larval development in vitro; assay type: in vivo, Apis mellifera
Protocol: In order to assess the effect of LiCl on larval development in vitro, larvae were obtained by caging the queen for 24 h on broodless combs in the colony. After 5 to 6 days when the larvae reached the age of about 48 h they were transferred to petri dishes filled with larval food. The petri dishes were placed in plastic boxed filled with 8% sulfuric acid in order to prevent fungi infection and kept in a chamber at 34° C. and 95% relative humidity. The larvae were fed as needed with a mixture consisting of 53% royal jelly, 4% glucose, 8% fructose, 1% yeast extract and water (control). For samples treated with LiCl, 10 mM, 25 mM or 50 mM LiCl were added to the mixture. Prior to the pupa phase, the larvae were placed on a tissue for defecating which occurred approximately on day 9. Afterwards larvae were placed in well plates until hatching. Larvae mortality was monitored on a daily basis.

Varroa mites = assay: Experiment 5 cage comparison of LiCl, NaCl and MgCl2: dead mites; assay type: in vivo, Varroa destructor
Protocol: (§1) In a further experiment LiCl, NaCl and MgCl2 were selected and their acaricidal activity compared. The experiment was performed in cages of 50 bees, to each of which 25 mites were added. Bees in control cages received sucrose only. LiCl, NaCl or MgCl2 were added to 70% sucrose solutions at a final concentration of 25 mM each and fed to the bees for seven days. Survival rate of bees and mites were monitored daily. Dead bees and mites were removed from the cages.
(§2) The numbers represent mean values derived from 6 cages. […] Numbers for NaCl, MgCl2 and control represent mean values derived from 3 separate cages.

bees [4] = conditions: 25 mM in 70% sucrose; 50 bees
Protocol: as §6

bees [5] = conditions: 50 bees per cage, mean of 6 cages (LiCl) or 3 cages
Protocol: as §1, §2

bees [6] = assay: Experiment 3 dose response cage test (50 bees, 25 mites): bee survival and health; assay type: in vivo, Apis mellifera
Protocol: (§3) LiCl was added to 70% sucrose solution to final concentrations of 16 μM, 80 μM, 400 μM, 2 mM, 10 mM, 50 Mm, and 250 mM, respectively. 2 ml of the respective solution was fed to the bees, if the sucrose/LiCl solution was entirely ingested additional sucrose syrup was offered ad libidum. Uptake of LiCl solution as well as survival rate of bees and mites was monitored 3 times daily (morning, noon, evening). Additionally, the healthiness of bees was scored based on characteristic behavioral features. LiCl was administered until all mites were dead, and the experiment continued with plain sucrose syrup to record the response of bees over the entire 2 weeks of the experiment. For control bees treated with sucrose syrup only, 9 mites died within the course of the experiment with even timely distribution of the events, indicating natural death of mites. 26 bees died in the same period of time. In view of the life span of a worker bee (4 weeks) this relates to the natural death rate that can be expected in a time span of 14 days. However, 12 bees were lost in a single day equaling almost 50% of the total bee loss in this control experiment. […] For that reasons the sudden loss of bees on day 14 is considered to result from a mistake in bee treatment as feeding inappropriate amounts of sucrose syrup. (See FIG. 4, dotted red line)
(§4) Additionally, we set out to test activity of a single dose on mite viability. Sucrose with 25 mM LiCl was fed to a cage of 50 bees infested with 25 mites and monitored as described above. […] As such, a single dose of LiCl can be used to kill mites under the described conditions.
(§5) To explore the upper limit of dosage and limits of tolerability of bees we fed sucrose containing 100 mM of LiCl as only food source over 14 days. […] In view of the latter results the effective window for concentration and administration and regimen of LiCl is sufficiently large to elevate low but effective concentrations (10 mM) more than 10 fold or prolong the time of administration substantially without negative impact on bee health.

Varroa destructor [7] = assay: Experiment 3 dose response cage test (50 bees, 25 mites): mite survival; assay type: in vivo
Protocol: as §3, §4, §5

[8] = 25 mM in 70% sucrose for seven days
[9] = 25 mM in 70% sucrose for seven days, 25 mites per cage, mean of 6 cages (LiCl) or 3 cages
[10] = 100 mM as only food source over 14 days
[11] = 250 mM in 70% sucrose, 25 mites

[Cl-].[Li+] [LiCl, lithium chloride]
acaricidal efficacies for all six swarms (Varroa destructor [1]): above 80% | mites dead after 24 h (Varroa destructor [2]): 4 mites | mites dead after 48 h (Varroa destructor [2]): 15 mites | mites dead after 72 h (Varroa destructor [2]): 20 mites | Remaining mites (Varroa destructor [3]; 2 mM in 70% sucrose for 23 days): 234 | Remaining mites (Varroa destructor [3]; 10 mM in 70% sucrose for 23 days): 54 | Remaining mites (Varroa destructor [3]; 25 mM in 70% sucrose for 23 days): 24 | Survival rate (%) of larvae or pupae (honey bee larvae; 10 mM added to larval food): 0% | time in which all larvae were lost (honey bee larvae; 10 mM, 25 mM or 50 mM added to larval food): ≤ 72 h | Survival rate (%) of larvae or pupae (honey bee larvae; 25 mM added to larval food): 0% | Survival rate (%) of larvae or pupae (honey bee larvae; 50 mM added to larval food): 0% | acaricidal effect (Varroa mites; [8]): strong acaricidal effect | Number of dead mites, Day 1 (Varroa mites; [9]): 0.3 | Number of dead mites, Day 2 (Varroa mites; [9]): 2.2 | Number of dead mites, Day 3 (Varroa mites; [9]): 19.2 | Number of dead mites, Day 4 (Varroa mites; [9]): 3.0 | Number of dead mites, Day 5 (Varroa mites; [9]): 0.3 | Number of dead mites, Day 6 (Varroa mites; [9]): 0.0 | Number of dead mites, Day 7 (Varroa mites; [9]): 0.0 | Number of dead mites, Sum (Varroa mites; 25 mM in 70% sucrose, days 1-7, 25 mites per cage, mean of 6 cages (LiCl) or 3 cages): 25.0 | effect on bees within the first 4 days of treatment (bees [4]): not affected | Number of dead bees, Day 1 (bees [5]; [8]): 0.2 | Number of dead bees, Day 2 (bees [5]; [8]): 0.2 | Number of dead bees, Day 3 (bees [5]; [8]): 0.3 | Number of dead bees, Day 4 (bees [5]; [8]): 0.8 | Number of dead bees, Day 5 (bees [5]; [8]): 0.5 | Number of dead bees, Day 6 (bees [5]; [8]): 1.0 | Number of dead bees, Day 7 (bees [5]; [8]): 0.2 | Number of dead bees, Sum (bees [5]; 25 mM in 70% sucrose, days 1-7): 3 and 3.2 | tolerance by bees (bees [6]; 2 mM over a period of 2 weeks): without pronounced decrease in viability | bees that survived the treatment (bees [6]; 2 mM, 50 bees, 2 weeks): 42 bees | bees alive at the end of the experiment (bees [6]; 10 mM, 50 bees, 2 weeks): 34 bees | tolerability by the bees (bees [6]; 50 mM, 50 bees): good tolerability | bees lost in the timespan of the entire experiment (bees [6]; 50 mM, 50 bees, 2 weeks): 20 bees | effect on bees (bees [6]; [10]): time delayed continuous loss of bees | average rate of bee loss (bees [6]; 250 mM until all mites dead, then sucrose only, 50 bees): 3 bees per day | bees lost in total (bees [6]; 250 mM until all mites dead, then sucrose only, 50 bees, 2 weeks): 27 bees | impact on bee health (bees [6]; single dose of sucrose with 25 mM, entire experiment): no negative impact on bee health | mites that survived the treatment (Varroa destructor [7]; 2 mM, 25 mites, 2 weeks): 11 mites | time in which all mites were killed (Varroa destructor [7]; 10 mM in 70% sucrose, 25 mites): ≤ 48 h | additional mites found dead at the end of the experiment (Varroa destructor [7]; 10 mM, 25 mites): 2 mites | dead mites, day 1 (Varroa destructor [7]; 10 mM, 25 mites): 3 mites | dead mites, day 2 (Varroa destructor [7]; 10 mM, 25 mites): 10 mites | dead mites, day 3 (Varroa destructor [7]; 10 mM, 25 mites): 7 mites | dead mites, day 4 (Varroa destructor [7]; 10 mM, 25 mites): 3 mites | time to all mites dead (Varroa destructor [7]; 50 mM in 70% sucrose, 25 mites): 48 h | effect on mites (Varroa destructor [7]; [10]): effectively killed | mites lost between 30 h and 48 h (Varroa destructor [7]; [11]): 21/25 | time to loss of all mites (Varroa destructor [7]; [11]): ≤ 48 h | impact on viability of mites (Varroa destructor [7]; concentrations lower than 2 mM (16 μM, 80 μM, 400 μM), data not shown): only marginally impacted the viability of mites | time to eliminate all mites (Varroa destructor [7]; concentrations of 10 mM and higher): ≤ 4 days | time in which mites were effectively killed (Varroa destructor [7]; single dose of sucrose with 25 mM, 50 bees, 25 mites): ≤ 72 h
